The text below walks through data of ChEMBL document CHEMBL4373679, “Overcoming synthetic challenges in targeting coenzyme A biosynthesis with the antimicrobial natural product CJ-15,801” (Medchemcomm, 2019).

Holding throughout (assay type): functional, organism-based
The test system of assay [1] is Plasmodium falciparum. The assay can be described thus: Antimalarial activity against Plasmodium falciparum infected in erythrocytes in presence of 100 uM pantothenic acid and TBA salt form by SYBR safe-based fluorescence assay.
In assay [2] the test system is Plasmodium falciparum. The assay can be described thus: Antimalarial activity against Plasmodium falciparum infected in erythrocytes in presence of 1 uM pantothenic acid and TBA salt form by SYBR safe-based fluorescence assay.
For assay [3], the system named is Plasmodium falciparum. The assay can be described thus: Antimalarial activity against Plasmodium falciparum infected in erythrocytes in presence of 1 uM pantothenic acid by SYBR safe-based fluorescence assay.

One may read the IC50 as the concentration that gives 50% inhibition. In the case of `CC(C)(CO)[C@@H](O)C(=O)N/C=C/C(=O)O`, the IC50 with Plasmodium falciparum [1] stood at 25 µM; with Plasmodium falciparum [2] it was 25 µM; with Plasmodium falciparum [3], 64 µM.

As to `CCCC[N+](CCCC)(CCCC)CCCC` [TETRABUTHYLAMMONIUM], in the assay on Plasmodium falciparum [3], the IC50 stood at 5 µM.
